Measured values: patent US20220160812A1, “A PHARMACEUTICALLY ACTIVE SUBSTANCE” (Cytopharma GmbH, priority 2019, published 2022)

Test system: BxPC-3 human pancreatic cancer cells
Experiment: cell vitality FACS analysis (region R-1, FSC/SSC), BxPC-3 cells
Type: cell-based
Details: BxPC-3, Protocol A, about 24 hours, FIG. 8
Procedure: To transfer adherent cells (A375 and BxPC-3 cells) after culture, cells are washed twice with PBS. To detach the cells, the enzyme biotase is used according to the manufacturer's instructions. For this purpose, after washing with PBS, the cells are mixed with biotase (5 ml of biotase solution per 75 cm^2 surface of the cell culture bottles) and incubated for 5 min at 37 degrees Celsius, and the biotase is separated by centrifugation. Cells cultivated in suspension (MEC-1 and lymphocytes) were transferred by dilution. The cells are suspended in culture medium and counted, each time 1.5×10^5 cells/cm^2 are seeded in 48-well plates and cultured for between 1.5 and 24 hours at 37 degrees Celsius, 5% CO2. Peptides are pre-diluted from stock solution with culture medium and 200 μl of peptide solution added so that final concentrations of 30 to 500 μM peptide are present in at most 1% (v/v) DMSO. As control solutions, culture medium without peptide (DMSO-containing) in culture medium or etoposide solution is added. After incubating the cells for several hours, the cell supernatant is transferred to a FACS tube for each batch and, after washing the cells with PBS, the wash solution is added. Then the cells are incubated with 200 μl of biotase solution for 10 min, 37° C., the cells with the biotase are also transferred to the FACS tube and the cells are collected by centrifugation for 5 min. The cell pellet is suspended in 500 μl of serum-free culture medium, then 1.5 ml of cold 80% ethanol (ethanol/PBS-80/20, v/v, stored at −20° C.) is added, the FACS tubes sealed and stored at −20 degrees Celsius for 15 to 18 h. Thereafter, the cells are centrifuged for 5 minutes at 120 g, suspended after removal of the supernatant in 2 ml PBS and incubated at 37 degrees Celsius for 30 minutes. After re-centrifugation, the cells are suspended in 0.5 ml DAPI solution and incubated for 15 min at 20 degrees Celsius in the dark. Thereafter, the cells are stored dark for a maximum of four hours in an ice bath, followed by the FACS analysis. […]
For suspension cells (MEC-1 and lymphocytes/PBMC) and for adherent cells analyzed according to Protocol A, FACS analysis to determine subG1 cell cycle and vital cell fractions was done on a Becton Dickinson LSR Fortessa flow cytometer. The analysis by FACS including subG1 and vital cell analysis according to protocol B was performed with a Cytomics FC 500 MPL flow cytometer from Beckman Coulter.
Changes of the cell form during cell death by apoptosis are documented in the literature (Lizard et al. 1995; Taga et al. 2000; Vermes et al., 2000). The protocols for cell cultivation, treatment and preparation of the cells before flow cytometry is detailed in separate examples. Cell suspensions of cell lines A375, BxPC-3, MEC-1 or of primary lymphocytes (see separate example of lymphocyte preparation) are analyzed by flow cytometry. The data are further analyzed by using the program “Flowing Software 2”. The data of light scattering are drawn in a two-dimensional FSC/SSC plot. Since the position in the FSC/SSC plot of apoptotic cells changes relative to non-apoptotic cells (Vermes et al., 2000), a region (R-1) is drawn representing mainly non-apoptotic cells and excluding cells with both low FSC and low SSC values and excluding cells with high values of FSC and/or SSC (FIG. 1). The regions are individually selected for each cell type (A375, BxPC-3, MEC-1 and primary lymphocytes). The percentage of untreated non-apoptotic cells in the region R-1 relative to total cells is set to 100%, representing 100% vital cells. The fraction (%) of cells in R-1 relative to the total number of cells in case of cell treatment by certain peptides or by cytotoxic drugs results in cell vitality, below 100%, thereby indicating a loss of cell vitality by the treatment. […]

[1] = all concentrations (50, 100, 200 μM)

| Substance | decrease of cell vitality, efficiency in words (100 μM) | decrease of cell vitality, efficiency in words (200 μM) | decrease of cell vitality, comparison in words [1] | decrease of cell vitality, comparison in words (50 μM) | efficiency (decrease of cell vitality) in view of Peptide SEQ C1 (50 μM) | efficiency (decrease of cell vitality) in view of Peptide SEQ C1 (100 and 200 μM) |
| --- | --- | --- | --- | --- | --- | --- |
| k-s-q-t-v-k-k-w-m-v-v-y-f-r-k [SEQID No 29] | very high efficiency | astonishing high efficiency | significantly greater decrease than the control peptide (C1) | – | – | – |
| k-s-q-t-v-q-k-w-m-v-v-y-f-r-k [SEQID No 36] | very high efficiency | astonishing high efficiency | significantly greater decrease than the control peptide (C1) | clear improvement over peptides SEQID NO 27, SEQID NO 37 and SEQID NO 29 | at least fourfold | at least sevenfold |
| s-q-t-v-q-k-w-m-v-v-y-f-r-k [SEQID No 37] | – | astonishing high efficiency | significantly greater decrease than the control peptide (C1) | – | – | – |
